From article PMC6826492, “Experimental and Computational Study of the Antioxidative Potential of Novel Nitro and Amino Substituted Benzimidazole/Benzothiazole-2-Carboxamides with Antiproliferative Activity” (Antioxidants, 2019)
Structures can show the parent of a compound that is named as a salt. Where two headings read alike, the source gives them in different places.

How the values were obtained:
[1] = Ferric reducing/antioxidant power (FRAP assay); format: biochemical; design: key to FRAP: –: Very low activity; conditions: means ± standard deviation; absorbance at 593 nm
Protocol: The FRAP method was carried out according to previously described procedures with some modifications to be compatible with an assay on a 96-well microplate. All tests were done in triplicate, while the obtained results were averaged and reported as Fe^2+ equivalents (Fe^2+ µmol).
By using the FRAP assay, we investigated the reducing power of investigated systems, which was monitored by the corresponding changes in the absorbance at 593 nm. This method is based on the ability of systems to reduce the ferric tripyridyl triazine complex (TPTZ) to the ferrous state (Fe^2+), which can be seen by an intense blue color. […] Good reducing ability was shown by the trimethoxy substituted benzimidazole-2-carboxamide 14 bearing the amino group (1102.5 ± 14.1 mmolFe^2+/mmolC).

[2] = DPPH free radical scavenging; format: biochemical; design: key to DPPH IC50: –: Very low activity; conditions: after 30 min of incubation with 100 μM DPPH
Protocol: The reducing activity of investigated systems was achieved by the DPPH method according to previously described procedures with modifications to assure the use in a 96-well microplate. Briefly, equal volumes of various concentrations of tested molecules (dissolved in DMSO) were added to the solution of DPPH (final concentration 50 µM in absolute ethanol). Ethanol and DMSO were used as control solutions in line with earlier reports.

MCF-7 (breast carcinoma) = test: Antiproliferative activity in vitro (MTT assay); format: cell-based, human; conditions: 72 h incubation, concentration that causes 50% growth inhibition
Protocol: (§1) The experiments were performed on four human cell lines, including HCT 116 (colon carcinoma), H 460 (lung carcinoma), MCF-7 (breast carcinoma), and HEK 293 (human embryonic kidney cells), in line with previously published experimental procedures. Briefly, the cells were grown in DMEM medium with the addition of 10% fetal bovine serum (FBS), 2 mM L-glutamine, 100 U/mL penicillin, and 100 µg/mL streptomycin, and cultured as monolayers at 37 °C in a humidified atmosphere with 5% CO2. Cells were seeded at 2 × 10^3 cells/well in a standard 96-well microtiter plates and left to attach for 24 h. The next day, a test compound was added in five serial 10-fold dilutions. The rate of cell growth was evaluated after 72 h of incubation with MTT assays. The obtained results are expressed as IC50 values, calculated from the concentration-response curve using linear regression analysis by fitting the test concentrations that give PG values above and below the reference value (i.e., 50%). Each test was performed in quadruplicate in at least two individual experiments.

H 460 (lung carcinoma) = test: Antiproliferative activity in vitro (MTT assay); format: cell-based, human; conditions: 72 h incubation, concentration that causes 50% growth inhibition
Protocol: as §1

[3] = tested on: HCT 116 (colon carcinoma); test: Antiproliferative activity in vitro (MTT assay); format: cell-based, human; conditions: 72 h incubation, concentration that causes 50% growth inhibition, read-out: IC50 HCT116
Protocol: as §1

[4] = tested on: HEK 293 (human embryonic kidney cells); test: Cytotoxic activity on non-cancerous cells (MTT assay); format: cell-based; conditions: non-tumor cell line, 72 h incubation, MTT, concentration that causes 50% growth inhibition
Protocol: as §1

[5] = monocationic, in acetonitrile ref 39; cited from earlier work

Row | SMILES | IC50 [2] [µM] | IC50 (MCF-7 (breast carcinoma)) [µM] | IC50 (H 460 (lung carcinoma)) [µM] | IC50 [3] [µM] | IC50 (MCF-7 (breast carcinoma); Homo sapiens, MCF7, 72 h) [µM] | IC50 (H 460 (lung carcinoma); Homo sapiens, NCI-H460, 72 h) [µM] | IC50 ([3]; Homo sapiens, HCT-116, 72 h) [µM] | DPPH IC50 [2] | FRAP [1] | IC50 [4] [µM] | IC50 ([4]; Homo sapiens, HEK293) [µM] | BDE [5] [kcal/mol]
1 | COc1ccccc1C(=O)Nc1nc2ccc(N)cc2[nH]1 [Compound 18, N-[5(6)-aminobenzimidazol-2-yl]-2-methoxybenzamide hydrochloride] | 9.85 ± 0.003 | 23 ± 2 | 36 ± 8 | 33 ± 7 |  |  |  |  | 267.2 ± 5.0 mmolFe^2+/mmolC |  |  | 
2 | COc1ccc(C(=O)Nc2nc3ccc(N)cc3[nH]2)c(OC)c1 [Compound 19, N-[5(6)-aminobenzimidazol-2-yl]-2,4-dimethoxybenzamide hydrochloride] | 13.3 ± 0.8 | 34 ± 24 | > 100 | ≥ 100 |  |  |  |  | 259.1 ± 0.6 mmolFe^2+/mmolC |  |  | 
3 | COc1cc(C(=O)Nc2nc3cc(N)ccc3[nH]2)cc(OC)c1OC.Cl [Compound 20, N-(6-aminobenzimidazol-2-yl)-3,4,5-trimethoxybenzamide hydrochloride] | 8.06 ± 0.03 |  |  |  | 34 ± 30 | > 100 | ≥ 100 |  | 267.4 ± 1.4 mmolFe^2+/mmolC |  |  | 
4 | COc1ccc(C(=O)Nc2nc3ccc(N)cc3s2)c(OC)c1.Cl [Compound 22, N-(6-aminobenzothiazol-2-yl)-2,4-dimethoxybenzamide hydrochloride] | 4 ± 0.04 | 3 ± 0.2 | 50 ± 8 | 8 ± 2 |  |  |  |  | 244.2 ± 3.0 mmolFe^2+/mmolC | 11 ± 1 |  | 
5 | COc1cc(C(=O)Nc2nc3ccc(N)cc3s2)cc(OC)c1OC.Cl [Compound 23, N-(6-aminobenzothiazol-2-yl)-3,4,5-trimethoxybenzamide hydrochloride] | 1.5 ± 0.5 |  | 34 ± 9 | 50 ± 11 |  |  |  |  | 241.3 ± 1.6 mmolFe^2+/mmolC |  |  | 
6 | O=C(Nc1nc2ccc([N+](=O)[O-])cc2[nH]1)c1ccccc1O [Compound 24, 2-hydroxy-N-[5(6)-nitrobenzimidazol-2-yl]benzamide] |  |  |  |  | 42 ± 7 | 42 ± 20 | 61 ± 0.1 | – | 39.1 ± 2.0 mmolFe^2+/mmolC |  |  | 
7 | COc1ccc(C(=O)Nc2nc3ccc([N+](=O)[O-])cc3[nH]2)c(O)c1 [Compound 25, 2-hydroxy-4-methoxy-N-[5(6)-nitrobenzimidazol-2-yl]benzamide] |  |  |  |  | 28 ± 6 | 18 ± 0.01 | 31 ± 4 | – | 150.4 ± 3.4 mmolFe^2+/mmolC |  |  | 
8 | CN [Me–NH3^+] |  |  |  |  |  |  |  |  |  |  |  | 114.6

Now from value to compound, other results behind:

Row | IC50 [2] [µM] | IC50 (MCF-7 (breast carcinoma)) [µM] | IC50 (H 460 (lung carcinoma)) [µM] | IC50 [3] [µM] | IC50 (MCF-7 (breast carcinoma); Homo sapiens, MCF7, 72 h) [µM] | IC50 (H 460 (lung carcinoma); Homo sapiens, NCI-H460, 72 h) [µM] | IC50 ([3]; Homo sapiens, HCT-116, 72 h) [µM] | DPPH IC50 [2] | SMILES | FRAP [1] | IC50 [4] [µM] | IC50 ([4]; Homo sapiens, HEK293) [µM] | BDE [5] [kcal/mol]
9 |  |  |  |  | 2 ± 0.6 | 3 ± 0.2 | 6 ± 1 | – | O=C(Nc1nc2ccc([N+](=O)[O-])cc2s1)c1ccccc1O [Compound 27, 2-hydroxy-N-(6-nitrobenzothiazol-2-yl)benzamide] | – |  | 3 ± 1 | 
10 |  |  |  |  | 10 ± 8 | 8 ± 1 | 7 ± 0.4 | – | COc1ccc(C(=O)Nc2nc3ccc([N+](=O)[O-])cc3s2)c(O)c1 [Compound 28, 2-hydroxy-4-methoxy-N-(6-nitrobenzothiazol-2-yl)benzamide] | 39.8 ± 1.6 mmolFe^2+/mmolC |  | 4 ± 2 | 
11 | 42.5 ± 0.5 |  |  |  | 30 ± 0.8 | > 100 | 46 ± 0.2 |  | Nc1ccc2nc(NC(=O)c3ccccc3O)[nH]c2c1 [Compound 30, N-[5(6)-aminobenzimidazol-2-yl]-2-hydroxybenzamide] | 272.6 ± 7.1 mmolFe^2+/mmolC |  |  | 
12 | 9.2 ± 0.6 |  |  |  | ≥ 100 | 75 ± 27 | 37 ± 7 |  | COc1ccc(C(=O)Nc2nc3ccc(N)cc3[nH]2)c(O)c1 [Compound 31, N-[5(6)-aminobenzimidazol-2-yl]-2-hydroxy-4-methoxybenzamide] | 258.4 ± 6.4 mmolFe^2+/mmolC |  |  | 
13 | 29.5 ± 0.1 | 80 ± 4 | ≥ 100 | 50 ± 13 |  |  |  |  | COc1ccc(C(=O)Nc2nc3ccc(N)cc3[nH]2)c(O)c1 [Compound 32, N-[5(6)-aminobenzimidazol-2-yl]-2-hydroxy-4-methoxybenzamide] | 304.3 ± 6.4 mmolFe^2+/mmolC |  |  | 
14 |  |  |  |  | 1 ± 0.7 | 0.1 ± 0.04 | 5 ± 2 |  | COc1cc([C@@H]2c3cc4c(cc3[C@@H](O[C@@H]3O[C@@H]5CO[C@@H](C)O[C@H]5[C@H](O)[C@H]3O)[C@H]3COC(=O)[C@H]23)OCO4)cc(OC)c1O [Etoposide, reference compound] |  |  | 1.6 ± 0.4 | 
